Experimental findings from patent publication US20150313928A1, “NEW APPLICATION OF CATALPOL” (SUZHOU YOUSEEN NEW PHARMACY DEVELOPMENT CO., LTD., priority 2012, published 2015) are described below.

The test system of assay [1] is Kunming mice. Nature of the assay: Animal model preparation: injection of levothyroxine sodium (heart rate, serum T3/T4, heart weight index). Conditions: levothyroxine sodium 350 μg/kg subcutaneous injection, model group. It counts as in vivo. How it is done:
The animals are placed indoor for milieu adaptation 2 days prior to the experiment. 20 Kunming mice are randomly selected and put in the blank group, administered normal saline by subcutaneous injection, while the other mice are administered levothyroxine sodium 350 μg/kg by subcutaneous injection, with a daily dosage of 10 ml/kg, for 7 consecutive days.
After the third hour at the sixth day of medication, 10 mice (half male and half female) are randomly selected respectively from the blank group and the model group for measurement of heart rate. Under anesthesia, the mice are taken electrocardiogram for calculation of their heart rate. Statistical analysis is then conducted for comparison of differences.
In the case of substantial acceleration of its heart rate, a mouse is suspended of food without suspension of water for 12 hours starting at 8 o'clock of the last day (the seventh day) of medication. Each mouse in each group is taken of its weight at 8 o'clock the next morning. Blood is taken from its eye ball and subsequent to coagulation, put in centrifugation for 15 minutes at 3500 r/min, for measurement of T3 and T4 by means of radioimmunoas say. Each mouse is sacrificed and its heart is taken out for measurement of its heart weight and left ventricular weight. At conclusion of the experiment, the heart weight index and left ventricular weight index is calculated. [Heart weight index HWI=heart weight (HW)/body weight (BW); left ventricular weight index LVWI=left ventricular weight (LVW)/ body weight (BW)]
If the levels of the above indexes are substantially elevated, the model is regarded as successful.

In assay [2] the test system is mice in the hyperthyroidism model group. The assay can be described thus: Measurement of heart indexes of the mice. It is filed as in vivo, Kunming mice. Set-up: HWI / LVWI: unit not given here. How it is done:
(§1) The successfully modeled mice are randomized into 5 groups (10 mice per group), that is, the hyperthyroidism model group, the catalpol low dosage group, the catalpol medium group, the catalpol high dosage group, and the methimazole group, plus the blank group (10 mice).
(§2) The catalpol low dosage group is administered 30mg/kg catalpol, the catalpol medium dosage group 60 mg/kg, the catalpol high group 90 mg/kg and the methimazole group 7.5 mg/kg methimazole, all by gastric infusion, while the blank group and the hyperthyroidism group are administered equal amount of distilled water, once per day, for 20 consecutive days. With the exception of the blank group, each mouse in each group continues to be administered 350 ug/kg levothyroxine sodium by means of subcutaneous injection each day.
A mouse is sacrificed its heart instantly taken out for measurement of its heart weight (HW) and (left ventricular weight (LVW). Heart weight index (HWI=HW/BW) and left ventricular weight index (LVWI=LVW/BW) is calculated at conclusion the experiment.

Assay [3] shares this test system. The assay can be described thus: Measurement of the level of thyroid hormone of serum (radioimmunoassay). It is filed as in vivo, Kunming mice. How it is done: as §1, §2
A mouse is suspended of food without suspension of water for 12 hours subsequent to the last medication, and blood is taken from its eye ball, put in centrifugation for 15 minutes at 3500 r/min, serum is pumped out for measurement of T3, T4, FT3, and FT4 by means of radioimmunoassay. For detailed operations, see the instruction manual.

Assay [4] shares this test system. Nature of the assay: Measurement of the oxygen consumption of the mice. It is filed as in vivo, Kunming mice. How it is done: as §1, §2
Oxygen consumption is measured two days prior to the last medication. The specific method is: take a model CY-3 digital oxygen meter and install therein an oxygen electrode. Connect, perform zero adjustment, and repeat until the instrument is stable for use. Take a 500 ml bottle, fix its outward connecting pipe with a rubber cover, seal with Vaseline. The rubber cover is connected via a tee, and a shift in the tee is selectable for connection or disconnection with outer space. A mouse is placed inside the bottle, and the mouth of the bottle is instantly covered with a wood plug to shut off air from the inner flask. The filtering flask is horizontally placed on the experiment table, and timing of 20 minutes After 20 minute, 10 ml air from the bottle was taken out by a injector and rapidly injected into a connector of the CY-3 type digital oxygen analyzer with the oxygen analyzer indicating oxygen content of the pumped in air. The data, when stable, is recorded as the residual oxygen value, then the oxygen consumption (20 min, 10 ml)=21%—residual oxygen value (%). (21% oxygen in air).

Assay [5] shares this test system. The assay can be described thus: Measurement of mice weight change. It is filed as in vivo, Kunming mice. How it is done:
as §1, §2
A mouse is suspended of food without suspension of water for 12 hours starting at 8 o'clock one day prior to the first medication, and all the mice are taken of their body weight (BW) the next day, that is, the pre-treatment body weight (BW1); the mouse is suspended of food without suspension of water for 12 hours starting at 8 o'clock of the day of the last medication, its body weight (BW) is taken the next day, that is, the post-treatment body weight (BW2); the difference of the pre-treatment body weight and the post-treatment body weight is calculated to compare the change of the body weight of the mice among each group.

Assay [6] has the same test system. The assay can be described thus: Measurement of heart rate of the mice (electrocardiogram). It is filed as in vivo, Kunming mice. How it is done:
The successfully modeled mice are randomized into 5 groups (10 mice per group), that is, the hyperthyroidism model group, the catalpol low dosage group, the catalpol medium group, the catalpol high dosage group, and the methimazole group, plus the blank group (10 mice). The catalpol low dosage group is administered 30mg/kg catalpol, the catalpol medium dosage group 60 mg/kg, the catalpol high group 90 mg/kg and the methimazole group 7.5 mg/kg methimazole, all by gastric infusion, while the blank group and the hyperthyroidism group are administered equal amount of distilled water, once per day, for 20 consecutive days. With the exception of the blank group, each mouse in each group continues to be administered 350 ug/kg levothyroxine sodium by means of subcutaneous injection each day. All the mice are suspended of food without suspension of water for 12 hours one day prior to the last medication and heart rate is measured 3 hours later. Heart rate (HR) is calculated via the electrocardiogram, statistics is then conducted, and differences are compared.

Setting [7] is: serum, methimazole 7.5 mg/kg gastric infusion once per day, 20 days.

In turn, `N[C@@H](Cc1cc(I)c(Oc2cc(I)c(O)c(I)c2)c(I)c1)C(=O)O` [levothyroxine sodium] registered an HWI in assay [1] (heart weight index = HW/BW, 7 day) of 5.642 mg/g. Also, the LVWI in assay [1] (left ventricular weight index = LVW/BW, 7 day) stood at 3.735 mg/g. This compound also gave an HR in assay [1] (6 day, mean ± S) of 674.42 times/min. In assay [1] (serum, 7 day, mean ± S), this compound came in with a T3 of 2.89 ng/mL and a T4 of 311.43 ng/mL.

The compound `Cn1cc[nH]c1=S` [methimazole, reference compound] yielded an HWI in assay [2] (heart weight index = HW/BW, methimazole 7.5 mg/kg gastric infusion once per day, 20 days) of 5.784. The heart weight index entry in assay [2] (in words, compared with the model group, catalpol medium and high dosage and methimazole significant) is recorded as “decreased heart weight index to some extent”. The left ventricular index result in assay [2] (in words, compared with the model group, catalpol medium and high dosage significant (P<0.01)) was “decreased left ventricular index to some extent”. In addition, the LVWI in assay [2] (left ventricular weight index = LVW/BW, methimazole 7.5 mg/kg gastric infusion once per day, 20 days) worked out at 1.560. Also, in assay [3] (in words, compared with the model group, catalpol 30, 60, 90 mg/kg groups, methimazole 7.5 mg/kg, P<0.05), the “T3 level in the serum” value is “decreased T3 level in the serum to some extent”. For the same compound, in assay [3] (in words, compared with the model group, catalpol low P<0.01, medium, high and methimazole P<0.05), the “FT3 level in the serum” value is listed as “decreased FT3 level in the serum to some extent”. In addition, the “FT4 level in the serum” value in assay [3] (in words, compared with the model group, only catalpol low dosage significant (P<0.05)) is “decreased FT4 level in the serum to some extent”. Moreover, the “T4 level in the serum” value in assay [3] (in words, compared with the model group, only methimazole difference significant (P<0.05)) is “decreased T4 level in the serum to some extent”. In addition, in assay [3] (setting [7]), the FT3 came to 8.80 ng/mL, the FT4 is 26.85 ng/mL, the T3 amounted to 3.64 ng/mL and the T4 was 145.61 ng/mL. Further, the oxygen consumption entry in assay [4] (in words, compared with the model group, catalpol low (30 mg/kg) and high (90 mg/kg) dosage groups, methimazole 7.5 mg/kg) is “significantly decreased oxygen consumption”. For the same compound, in assay [4] (methimazole 7.5 mg/kg gastric infusion once per day, measured two days prior to the last medication, 21% minus residual oxygen), the “Decrease in oxygen content” value is 8.53 %, 20 min. In addition, the “BW2 − BW1” value in assay [5] (body weight difference, methimazole 7.5 mg/kg gastric infusion once per day, 20 days) is 9.00 g. In addition, the body weight increase result in assay [5] (in words, compared with the model group, catalpol groups, methimazole 7.5 mg/kg) is recorded as “more body weight increase to some extent”. Moreover, the BW2 in assay [5] (post-treatment body weight, methimazole 7.5 mg/kg gastric infusion once per day, 20 days, levothyroxine sodium 350 ug/kg s.c. daily) turned out to be 36.30 g. The BW1 in assay [5] (pre-treatment body weight, methimazole 7.5 mg/kg group) was found to be 27.30 g. In assay [6] (in words, compared with the model group, catalpol 30, 60, 90 mg/kg groups, methimazole 7.5 mg/kg), the Heart rate result is given as “decreased heart rate to some extent”. The same compound showed a Heart rate in assay [6] (methimazole 7.5 mg/kg gastric infusion once per day, 20 days, levothyroxine sodium 350 ug/kg s.c. daily) of 474.02 times/min.
